pKi: −log10 of the molar value.

In the experiment the target is T1, GABA A α5 (α5β3γ2) (Homo sapiens, UniProt P18507+P31644).
T1 construct: expressed in transfected cells; host or cells: HEK293, transiently transfected; membrane preparation
Description: [3H]flumazenil competition binding, human GABA A α5 receptor. The conditions noted are these: human receptor α5β3γ2 transiently transfected in HEK293 cells; competition for [3H]flumazenil 0.5 nM; 1 hour at 4° C.; means of two determinations; read-out: hKi GABA A α5. As for the experimental part: Membrane Preparation and Binding Assay
The affinity of compounds at GABA A receptor subtypes was measured by competition for [3H]flumazenil (85 Ci/mmol; Roche) binding to HEK293 cells expressing rat (stably transfected) or human (transiently transfected) receptors of compositional α1β3γ2, α2β3γ2, α3β3γ2 and α5β3γ2.
Cell pellets were suspended in Krebs-tris buffer (4.8 mM KCl, 1.2 mM CaCl2, 1.2 mM MgCl2, 120 mM NaCl, 15 mM Tris; pH 7.5; binding assay buffer), homogenized by polytron for ca. 20 sec on ice and centrifuged for 60 min at 4° C. (50000 g; Sorvall, rotor: SM24=20000 rpm). The cell pellets were re-suspended in Krebs-tris buffer and homogenized by polytron for ca. 15 sec on ice. Protein was measured (Bradford method, Bio-Rad) and aliquots of 1 mL were prepared and stored at −80° C.
Assays were incubated to equilibrium for 1 hour at 4° C. and harvested onto GF/C uni-filters (Packard) by filtration using a Packard harvester and washing with ice-cold wash buffer (50 mM Tris; pH 7.5). After drying, filter-retained radioactivity was detected by liquid scintillation counting. Ki values were calculated using Excel-Fit (Microsoft) and are the means of two determinations.

Regarding `CCCCc1noc(C)c1CCc1ncc(C(=O)NCC(C)O)s1` (centres unmarked) [Example 62, 2-[2-(3-Butyl-5-methyl-isoxazol-4-yl)-ethyl]-thiazole-5-carboxylic acid (2-hydroxy-propyl)-amide], the pKi is 7.35.

For the molecule `Cc1nc(/C=C/c2c(-c3ccc(F)cn3)noc2C)sc1C(=O)NC(C)C` [Example 71, 2-{(E)-2-[3-(5-Fluoro-pyridin-2-yl)-5-methyl-isoxazol-4-yl]-vinyl}-4-methyl-thiazole-5-carboxylic acid isopropylamide], the pKi is 8.82.

In the case of `Cc1nc(/C=C/c2c(-c3ccc(F)cn3)noc2C)sc1C(=O)NC(C)(C)CO` [Example 74, 2-{(E)-2-[3-(5-Fluoro-pyridin-2-yl)-5-methyl-isoxazol-4-yl]-vinyl}-4-methyl-thiazole-5-carboxylic acid (2-hydroxy-1,1-dimethyl-ethyl)-amide], the pKi was 8.08.

With `Cc1nc(/C=C/c2c(-c3ccccc3)noc2C)sc1C(=O)NC(C)C` [Example 68, 4-Methyl-2-[(E)-2-(5-methyl-3-phenyl-isoxazol-4-yl)-vinyl]-thiazole-5-carboxylic acid isopropylamide], the pKi is 9.40.

Turning to `Cc1onc(-c2ccc(F)cn2)c1CCc1ncc(C(=O)NC(C)C)s1` [Example 41, 2-{2-[3-(5-Fluoro-pyridin-2-yl)-5-methyl-isoxazol-4-yl]-ethyl}-thiazole-5-carboxylic acid isopropylamide], the pKi is 7.97.

On to `CNC(=O)c1cnc(CCc2c(-c3ccc(F)cn3)noc2C)s1` [Example 47, 2-{2-[3-(5-Fluoro-pyridin-2-yl)-5-methyl-isoxazol-4-yl]-ethyl}-thiazole-5-carboxylic acid methylamide], for which the pKi was 7.58.

Regarding `CCCCc1noc(C)c1/C=C/c1nc(C)c(C(=O)N2CC(F)(F)C2)s1` [Example 108, {2-[(E)-2-(3-Butyl-5-methyl-isoxazol-4-yl)-vinyl]-4-methyl-thiazol-5-yl}-(3,3-difluoro-azetidin-1-yl)-methanone], the pKi is 7.61.

Consider `Cc1nc(CCc2c(-c3ccc(F)cn3)noc2C)sc1C(=O)NC1CC1` [Example 33, 2-{2-[3-(5-Fluoro-pyridin-2-yl)-5-methyl-isoxazol-4-yl]-ethyl}-4-methyl-thiazole-5-carboxylic acid cyclopropylamide], for which the pKi was 8.05.

Take `Cc1onc(-c2ccccc2)c1COc1ncc(C(=O)NC(C)C)s1` [Example 127, 2-(5-Methyl-3-phenyl-isoxazol-4-ylmethoxy)-thiazole-5-carboxylic acid isoprop-ylamide]: the pKi is 8.66.

On to `Cc1nc(/C=C/c2c(-c3ccc(F)cn3)noc2C)sc1C(=O)NCC1CC1` [Example 75, 2-{(E)-2-[3-(5-Fluoro-pyridin-2-yl)-5-methyl-isoxazol-4-yl]-vinyl}-4-methyl-thiazole-5-carboxylic acid cyclopropylmethyl-amide], for which the pKi was 8.74.

For `Cc1onc(-c2ccc(F)cn2)c1CCc1ncc(C(=O)NC2CCOCC2)s1` [Example 40, 2-{2-[3-(5-Fluoro-pyridin-2-yl)-5-methyl-isoxazol-4-yl]-ethyl}-thiazole-5-carboxylic acid (tetrahydro-pyran-4-yl)-amide], the pKi was 7.88.

As for `CCCCc1noc(C)c1/C=C/c1nc(C)c(C(=O)N2CC3(COC3)C2)s1` [Example 123, {2-[(E)-2-(3-Butyl-5-methyl-isoxazol-4-yl)-vinyl]-4-methyl-thiazol-5-yl}-(2-oxa-6-aza-spiro[3.3]hept-6-yl)-methanone], the pKi is 8.96.

Take `Cc1nc(CCc2c(-c3ccccn3)noc2C)sc1C(=O)NCC(F)(F)F` [Example 13, 4-Methyl-2-[2-(5-methyl-3-pyridin-2-yl-isoxazol-4-yl)-ethyl]-thiazole-5-carboxylic acid (2,2,2-trifluoro-ethyl)-amide]: the pKi was 8.38.

As for `CCNC(=O)c1cnc(/C=C/c2c(-c3ccc(F)cn3)noc2C)s1` [Example 87, 2-{(E)-2-[3-(5-Fluoro-pyridin-2-yl)-5-methyl-isoxazol-4-yl]-vinyl}-thiazole-5-carboxylic acid ethylamide], the pKi is 8.40.

These data come from patent publication US8178522B2, “Thiazoles” (Hoffmann-La Roche Inc., priority 2009, dated 2012).
